Measurements from patent US20240024444A1, “Combined Preparation” (MEDRx Co., Ltd., priority 2020, published 2024).

Assay: In vitro skin permeability test (Franz diffusion cell)
Type: in vitro ADME, rat (Slc: Wistar)
Procedure: In this test, a Franz diffusion cell (effective diffusion area: 1.0 cm^2, PermeGear, Hellertown, US) was used, and the abdominal skin (shaved before the skin is removed) of 5-week-old male rats (Slc: Wistar) was used.
The abdominal skin of rats was cut to about […] (23 mm round) and set in a receptor cell filled with 8.0 mL of the receptor solution (saline of 0.1% bovine serum albumin (BSA) (purchased from FUJIFILM Wako Pure Chemical Corporation)). The receptor solution was kept at 32° C. in a circulator water bath at a constant temperature. After 2, 4, 6, 8 and 24 hours, the receptor solution (0.2 mL) was collected and each of the collected solution was used as samples. After collecting the samples, the same amount of the receptor solution was added into the receptor cell to keep the volume of the receptor solution constant. […] The HPLC condition was as follows: Column: YMC Pack Pro C18 RS 5 μm, 4.6×150 mm; YMC CO., LTD., Mobile Phase: acetonitrile/0.1% trifluoroacetic acid (23/77, v/v) at 35° C., Flow Rate: 1.0 mL/min. The wavelength of the UV detector was set to 215 nm.

accumulative amount of the co-administered R848 for 24 hours (R848 co-administered with WT1 peptide): about 350 μg/cm^2 | accumulative amount of the individually-administered R848 for 24 hours (R848 individually administered): about 1500 μg/cm^2
SMILES: CCOCc1nc2c(N)nc3ccccc3c2n1CC(C)(C)O [R848, Resiquimod]
